Laboratory results published in patent US20200268702A1, “METHODS OF TREATING […]” (Amarin Pharmaceuticals Ireland Limited, priority 2013, published 2020).

Key:
[1] = system: subjects with Age-Associated Memory Impairment; experiment: Safety and tolerability (adverse events), 6-week AAMI study; format: in vivo, human
Description: Ninety-four subjects were randomized into one of six groups: 1 g E-EPA daily (n=23), 2 g E-EPA daily (n=24), 4 g E-EPA daily (n=24), 1 g placebo daily (n=7), 2 g placebo daily (n=8), and 4 g placebo daily (n=8).
All randomized subjects that received at least 1 dose of study medication were included in the Safety Population.
Safety evaluations were based on the safety population. Safety and tolerability were assessed in terms of AEs, vital signs, 12-lead ECG, clinical laboratory data, medical history, and study drug compliance. Safety and tolerability data were presented by treatment group.

[2] = Essential fatty acid parameters in plasma and RBC, 6-week AAMI study; format: in vivo, human
Description: Blood samples (10 mL) were collected at Visit 1 (screening) and at Visits 4, 5 and 6. Analysis was performed by MSR Lipid Analysis, Scottish Crop Research Institute, Dundee, UK. The screening sample acted as baseline for the EFA measurements. Lipid was extracted from plasma, serum and RBC suspensions and converted into fatty acid methyl esters which were analyzed by gas chromatography to give fatty acid profiles as micrograms fatty acid per gram of sample (μgFA/g) and normalized area percent. RBC and plasma EFA data were collected at baseline, Day 14, 28 and 42 and summarized by visit for each treatment group. Change from baseline and percent change from baseline were also summarized. ANCOVA comparison of ethyl-EPA dose groups and ethyl-EPA versus placebo was performed.

SMILES: CC/C=C\C/C=C\C/C=C\C/C=C\C/C=C\CCCC(=O)OCC [AMR101, ethyl eicosapentaenoate]
- nausea Probably Related to the study drug ([1]; 1 g): One
- nausea Possibly Related to the study drug, subjects ([1]; 1 g cohort): two
- nausea Possibly Related to the study drug, subjects ([1]; 2 g cohort): one
- SAE reported ([1]; 2 g treatment group): One
- subjects discontinued due to TEAEs ([1]; 2 g treatment group): 2 subjects
- Serious Adverse Event (worsening epigastric chest pain), relation to study drug ([1]; 2 g, one subject): unrelated to the study drug
- diarrhea Probably Related to the study drug ([1]; 4 g): Another subject
- nausea Possibly Related to the study drug, subjects ([1]; 4 g cohort): two
- TEAEs Definitely Related to the study drug ([1]; all groups): No TEAEs were Definitely Related
- deaths during the study ([1]; all groups): no deaths
- treatment emergent AEs (TEAEs) reported ([1]; ethyl-EPA treatment groups (1 g, 2 g, 4 g), placebo groups 34 events): 105 events
- AA, Plasma, Mean (SD) change from Baseline ([2]; 1 g daily, Day 14): −9.7 (22.20) μg/g
- AA, RBC, Mean (SD) change from Baseline ([2]; 1 g daily, Day 14): −8.1 (21.95) μg/g
- DGLA, Plasma, mean (SD) change from Baseline ([2]; 1 g daily, Day 14): −10.4 (10.90) μg/g
- DGLA, RBC, mean (SD) change from Baseline ([2]; 1 g daily, Day 14): −2.7 (3.82) μg/g
- DHA, Plasma, Mean (SD) change from Baseline ([2]; 1 g daily, Day 14): −6.4 (13.30) μg/g
- DHA, RBC, Mean (SD) change from Baseline ([2]; 1 g daily, Day 14): −4.6 (9.76) μg/g
- AA, Plasma, Mean (SD) change from Baseline ([2]; 1 g daily, Day 28): −11.3 (28.13) μg/g
- AA, RBC, Mean (SD) change from Baseline ([2]; 1 g daily, Day 28): −17.0 (20.69) μg/g
- DGLA, Plasma, mean (SD) change from Baseline ([2]; 1 g daily, Day 28): −10.6 (10.23) μg/g
- DGLA, RBC, mean (SD) change from Baseline ([2]; 1 g daily, Day 28): −3.8 (3.31) μg/g
- DHA, Plasma, Mean (SD) change from Baseline ([2]; 1 g daily, Day 28): −6.6 (15.53) μg/g
- DHA, RBC, Mean (SD) change from Baseline ([2]; 1 g daily, Day 28): −6.4 (11.57) μg/g
- AA, Plasma, Mean (SD) change from Baseline ([2]; 1 g daily, Day 42): −8.7 (31.35) μg/g
- AA, RBC, Mean (SD) change from Baseline ([2]; 1 g daily, Day 42): −14.2 (27.69) μg/g
- DGLA, Plasma, mean (SD) change from Baseline ([2]; 1 g daily, Day 42): −9.4 (9.41) μg/g
- DGLA, RBC, mean (SD) change from Baseline ([2]; 1 g daily, Day 42): −3.5 (4.51) μg/g
- DHA, Plasma, Mean (SD) change from Baseline ([2]; 1 g daily, Day 42): −5.4 (18.17) μg/g
- DHA, RBC, Mean (SD) change from Baseline ([2]; 1 g daily, Day 42): −7.0 (12.20) μg/g
- EPA/AA, Plasma, mean (SD) change from Baseline ([2]; 1 g daily, Day 42): 0.3
- AA, Plasma, LS Mean, 1 g versus 4 g ([2]; 1 g versus 4 g): 4.2 µg/g
- AA, RBC, LS Mean, 1 g versus 4 g ([2]; 1 g versus 4 g): 8.4 µg/g
- DGLA, Plasma, LS mean, 1 g versus 4 g ([2]; 1 g versus 4 g): 3.7 µg/g
- DGLA, RBC, LS mean, 1 g versus 4 g ([2]; 1 g versus 4 g): 1.5 µg/g
- DHA, Plasma, LS mean, 1 g versus 4 g ([2]; 1 g versus 4 g): -0.8 µg/g
- DHA, RBC, LS mean, 1 g versus 4 g ([2]; 1 g versus 4 g): 1.0 µg/g
- AA, Plasma, Mean (SD) change from Baseline ([2]; 2 g daily, Day 14): −13.9 (22.13) μg/g
- AA, RBC, Mean (SD) change from Baseline ([2]; 2 g daily, Day 14): −3.1 (25.84) μg/g
- DGLA, Plasma, mean (SD) change from Baseline ([2]; 2 g daily, Day 14): −14.1 (6.88) μg/g
- DGLA, RBC, mean (SD) change from Baseline ([2]; 2 g daily, Day 14): −2.6 (3.54) μg/g
- DHA, Plasma, Mean (SD) change from Baseline ([2]; 2 g daily, Day 14): −5.4 (14.29) μg/g
- DHA, RBC, Mean (SD) change from Baseline ([2]; 2 g daily, Day 14): −2.0 (9.46) μg/g
- AA, Plasma, Mean (SD) change from Baseline ([2]; 2 g daily, Day 28): 21.6 (28.32) μg/g
- AA, RBC, Mean (SD) change from Baseline ([2]; 2 g daily, Day 28): −14.1 (26.89) μg/g
- DGLA, Plasma, mean (SD) change from Baseline ([2]; 2 g daily, Day 28): −16.2 (9.88) μg/g
- DGLA, RBC, mean (SD) change from Baseline ([2]; 2 g daily, Day 28): −4.5 (3.58) μg/g
- DHA, Plasma, Mean (SD) change from Baseline ([2]; 2 g daily, Day 28): −8.1 (15.82) μg/g
- DHA, RBC, Mean (SD) change from Baseline ([2]; 2 g daily, Day 28): −6.2 (9.34) μg/g
- AA, Plasma, Mean (SD) change from Baseline ([2]; 2 g daily, Day 42): −27.3 (26.76) μg/g
- AA, RBC, Mean (SD) change from Baseline ([2]; 2 g daily, Day 42): −18.8 (25.62) μg/g
- DGLA, Plasma, mean (SD) change from Baseline ([2]; 2 g daily, Day 42): −17.3 (9.92) μg/g
- DGLA, RBC, mean (SD) change from Baseline ([2]; 2 g daily, Day 42): −5.3 (3.65) μg/g
- DHA, Plasma, Mean (SD) change from Baseline ([2]; 2 g daily, Day 42): −6.0 (16.69) μg/g
- DHA, RBC, Mean (SD) change from Baseline ([2]; 2 g daily, Day 42): −6.3 (9.42) μg/g
- AA, Plasma, LS Mean, 2 g versus 4 g ([2]; 2 g versus 4 g): 15.6 µg/g
- AA, RBC, LS Mean, 2 g versus 4 g ([2]; 2 g versus 4 g): 9.8 µg/g
- DGLA, Plasma, LS mean, 2 g versus 4 g ([2]; 2 g versus 4 g): 2.5 µg/g
- DGLA, RBC, LS mean, 2 g versus 4 g ([2]; 2 g versus 4 g): 1.5 µg/g
- DHA, Plasma, LS mean, 2 g versus 4 g ([2]; 2 g versus 4 g): 1.5 µg/g
- DHA, RBC, LS mean, 2 g versus 4 g ([2]; 2 g versus 4 g): 1.0 µg/g
- AA, Plasma, Mean (SD) change from Baseline ([2]; 4 g daily, Day 14): −27.2 (28.89) μg/g
- AA, RBC, Mean (SD) change from Baseline ([2]; 4 g daily, Day 14): −15.7 (26.76) μg/g
- DGLA, Plasma, mean (SD) change from Baseline ([2]; 4 g daily, Day 14): −22.9 (9.00) μg/g
- DGLA, RBC, mean (SD) change from Baseline ([2]; 4 g daily, Day 14): −5.3 (4.10) μg/g
- DHA, Plasma, Mean (SD) change from Baseline ([2]; 4 g daily, Day 14): −10.3 (13.35) μg/g
- DHA, RBC, Mean (SD) change from Baseline ([2]; 4 g daily, Day 14): −6.9 (9.13) μg/g
- AA, Plasma, Mean (SD) change from Baseline ([2]; 4 g daily, Day 28): −43.7 (32.24) μg/g
- AA, RBC, Mean (SD) change from Baseline ([2]; 4 g daily, Day 28): −22.8 (29.56) μg/g
- DGLA, Plasma, mean (SD) change from Baseline ([2]; 4 g daily, Day 28): −24.2 (10.73) μg/g
- DGLA, RBC, mean (SD) change from Baseline ([2]; 4 g daily, Day 28): −7.1 (4.63) μg/g
- DHA, Plasma, Mean (SD) change from Baseline ([2]; 4 g daily, Day 28): −13.5 (14.10) μg/g
- DHA, RBC, Mean (SD) change from Baseline ([2]; 4 g daily, Day 28): −8.7 (11.63) μg/g
- AA, Plasma, Mean (SD) change from Baseline ([2]; 4 g daily, Day 42): −48.3 (22.20) μg/g
- AA, RBC, Mean (SD) change from Baseline ([2]; 4 g daily, Day 42): −34.4 (31.44) μg/g
- DGLA, Plasma, mean (SD) change from Baseline ([2]; 4 g daily, Day 42): −22.5 (10.87) μg/g
- DGLA, RBC, mean (SD) change from Baseline ([2]; 4 g daily, Day 42): −8.0 (4.98) μg/g
- DHA, Plasma, Mean (SD) change from Baseline ([2]; 4 g daily, Day 42): −13.8 (15.31) μg/g
- DHA, RBC, Mean (SD) change from Baseline ([2]; 4 g daily, Day 42): −13.8 (13.76) μg/g
- EPA, DPAn-3 and EPA/AA ratio values, change from baseline to Day 42 ([2]; plasma and RBC, 1, 2 and 4 g treatment groups): increased substantially
